Reference: patent publication US7230028B2, “Dimeric compounds and their use as anti-viral agents” (priority 2001, dated 2007)
Converted amounts (≈) assume the structure as drawn. “And” between values parts separate entries of the source, which are not always exact repeats. Equal entries are not always repeated.

What was measured:
[1] = tested on: A/Panama/2007/99 BVLV008 (H3N2); experiment: Plaque reduction assay (PRA) in MDCK cells; assay type: cell-based; conditions: for EC50 PRA A/Pan: plaque reduction, A/Panama/2007/99 (H3N2)
B/Hong Kong/5/72 BVLV012 = experiment: Plaque reduction assay (PRA) in MDCK cells; assay type: cell-based, influenza B
Description: (§1) Madin Darby Canine Kidney (MDCK) cells are seeded into six well tissue culture plates and grown to confluency via standard methods. Influenza viruses are diluted in a minimal volume of phosphate buffered saline supplemented with 0.2% bovine serum albumin to yield an estimated titre of 50–100 plaque forming units (pfu) per well. After adsorption to the MDCK cells for one hour at 37° C. in a 5% CO2 atmosphere the viral inocula is aspirated and replaced with viral growth media (minimal Eagle's media supplemented with BSA, trypsin and insulin/transferrin/selenium at optimal concentrations) containing sufficient agar or agarose (generally 1–2%) to cause the media to gel at room temperature and at 37° C. in a 5% CO2 atmosphere until plaques develop (generally 2–4 days). Plaques can be visualised with a suitable stain (e.g. 0.4% crystal violet in formal saline) before counting.

B/Harbin/7/95 BVLV008 = experiment: Plaque reduction assay (PRA) in MDCK cells; assay type: cell-based; conditions: Influenza B virus, read-out: EC50 PRA B/Harb
Description: as §1

[2] = tested on: A/Bayern/7/95 BVL006 (H1N1); experiment: Plaque reduction assay (PRA) in MDCK cells; assay type: cell-based, influenza A H1N1; conditions: A/Bayern/7/95 (H1N1)
Description: as §1

A/WSN/33 BVLV09 (H1N1) = experiment: Plaque reduction assay (PRA) in MDCK cells; assay type: cell-based, influenza A H1N1; conditions: A/WSN/33 (H1N1)
Description: as §1

[3] = tested on: A/Sydney/5/97 BVLV015 (H3N2); experiment: Plaque reduction assay (PRA) in MDCK cells; assay type: cell-based, influenza A H3N2; conditions: A/Sydney/5/97 (H3N2)
Description: as §1

[4] = tested on: A/Victoria/3/75 BVLV017 (H3N2); experiment: Plaque reduction assay (PRA) in MDCK cells; assay type: cell-based
[5] = Rat lung retention assay (intra-tracheal dosing); assay type: in vivo; conditions: for Ratio Mean (lung) (cmpd)/PCT AU01/01128 compound 3: rat, in vivo; for Ratio Mean (lung) (cmpd)/PCT AU01/01128 compound 3 / (cmpd): 0.1 mg/kg; for Mean (cmpd) / (cmpd): rat lung, 0.1 mg/kg intra-tracheal; for (cmpd): individual animal, bis(trifluoroacetic acid salt)
Description: Rodents are anaesthetised and dosed with compound of interest by the intra-tracheal route at a dose volume of 0.8 ml/kg. The rodent is then held in the vertical position until full recovery is achieved. […] Any analytical method suitable for detection of this type of compound may be used. The time at which levels of compound fall below the sensitivity of the analytical techniques identified will determine the residency time of the compound in lung tissue.
Please note that all experiments included a co-dosed internal standard, namely compound 3 of International Patent Publication No. WO 02/20514, to permit comparison. The data are expressed as a ratio with respect to this compound, the structure of which is shown below.

[6] = tested on: A/New Caledonia/20/99 BVLV008 (H1N1); experiment: Plaque reduction assay (PRA) in MDCK cells; assay type: cell-based; conditions: for EC50 PRA A/New: plaque reduction, A/New Caledonia/20/99 (H1N1)
Influenza B/Harbin/7/95 = experiment: Cytopathic effect (CPE) assay, inhibition of influenza virus replication in MDCK cells; assay type: cell-based
Influenza A/Sydney/5/97 = experiment: as above; assay type: cell-based
B/Victoria/1/67 = experiment: Plaque reduction assay (PRA) in MDCK cells; assay type: cell-based, influenza B; conditions: bis(trifluoroacetic acid salt)
[7] = tested on: B/Yamanashi/166/98 BVLV007; experiment: Plaque reduction assay (PRA) in MDCK cells; assay type: cell-based; conditions: plaque reduction, B/Yamanashi/166/98

CC(=O)N[C@H]1[C@H]([C@H](O)[C@H](O)CO)OC(C(=O)O)=C[C@@H]1NC(=N)N [Compound A, 4-guanidino-2-deoxy-2,3-dehydro-N-acetylneuraminic acid]
EC50 ([1]; Influenza A virus, H3N2, MDCK, read-out: EC50 PRA A/Pan, plaque reduction, A/Panama/2007/99 (H3N2)): 2.7 ng/mL (≈ 8.12 nM)
EC50 PRA A/Pan [1]: 3 ng/mL (≈ 9.03 nM)
EC50 (B/Hong Kong/5/72 BVLV012; Influenza B virus, MDCK, read-out: EC50 PRA B/HongK): 21 ng/mL (≈ 63.2 nM)
EC50 (B/Harbin/7/95 BVLV008): 0.19 ng/mL (≈ 0.572 nM)
EC50 ([2]; Influenza A virus, MDCK, read-out: EC50 PRA A/Bay): 35 ng/mL (≈ 105 nM)
EC50 PRA A/WSN (A/WSN/33 BVLV09 (H1N1)): > 100 ng/mL
EC50 (A/WSN/33 BVLV09 (H1N1); Influenza A virus, MDCK): 56 ng/mL (≈ 169 nM)
EC50 ([3]; Influenza A virus, MDCK, read-out: EC50 PRA A/Syd): 2.4 ng/mL (≈ 7.22 nM)
EC50 ([4]; Influenza A virus, H3N2, MDCK, read-out: EC50 PRA A/Vic, plaque reduction, A/Victoria/3/75 (H3N2)): 5.5 ng/mL (≈ 16.6 nM)
Ratio Mean (lung) (cmpd)/PCT AU01/01128 compound 3 ([5]; 48 h): 0.26
Ratio Mean (lung) (cmpd)/PCT AU01/01128 compound 3 ([5]; 168 h): 0.08
EC50 ([6]; Influenza A virus, H1N1, MDCK, read-out: EC50 PRA A/New, plaque reduction, A/New Caledonia/20/99 (H1N1)): 0.27 ng/mL (≈ 0.812 nM)
EC50 PRA A/New [6]: 0.23 ng/mL (≈ 0.692 nM)

CC(=O)N[C@H]1[C@H]([C@H](OC(=O)NCCCCCCCCCCCNC(=O)O[C@@H]([C@@H]2OC(C(=O)O)=C[C@H](NC(=N)N)[C@H]2NC(C)=O)[C@H](O)CO)[C@H](O)CO)OC(C(=O)O)=C[C@@H]1NC(=N)N.O=C(O)C(F)(F)F.O=C(O)C(F)(F)F [Example 2, (2R,3R,4S)-3-(acetylamino)-2-{(1R,19R,20R)-19-((2R,3R,4S)-3-(acetylamino)-4-{[amino(imino)methyl]amino}-6-carboxy-3,4-dihydro-2H-pyran-2-yl)-1-[(1R)-1,2-dihydroxyethyl]-20,21-dihydroxy-3,17-dioxo-2,18-dioxa-4,16-diazahenicos-1-yl}-4-{[amino(imino)methyl]amino}-3,4-dihydro-2H-pyran-6-carboxylic acid bis(trifluoroacetic acid salt)]
ID50 B/Harbin/7/95 (Influenza B/Harbin/7/95; up to 72 hours, MTT): 0.0001 µg/mL
ID50 A/Sydney/5/97 (Influenza A/Sydney/5/97; up to 72 hours, MTT): 0.0001 µg/mL
EC50 PRA A/Syd [3]: <0.0001 ng/mL
EC50 PRA B/Vic (B/Victoria/1/67): 0.04 ng/mL
EC50 PRA B/Yam [7]: <0.0001 ng/mL

CC(=O)N[C@H]1[C@H]([C@H](OC(=O)NCCCCCCCCCCCCNC(=O)O[C@@H]([C@@H]2OC(C(=O)O)=C[C@H](NC(=N)N)[C@H]2NC(C)=O)[C@H](O)CO)[C@H](O)CO)OC(C(=O)O)=C[C@@H]1NC(=N)N.O=C(O)C(F)(F)F.O=C(O)C(F)(F)F [Example 3, (2R,3R,4S)-3-(acetylamino)-2-{(1R,20R,21R)-20-((2R,3R,4S)-3-(acetylamino)-4-{[amino(imino)methyl]amino}-6-carboxy-3,4-dihydro-2H-pyran-2-yl)-1-[(1R)-1,2-dihydroxyethyl]-21,22-dihydroxy-3,18-dioxo-2,19-dioxa-4,17-diazadocos-1-yl}-4-{[amino(imino)methyl]amino}-3,4-dihydro-2H-pyran-6-carboxylic acid bis(trifluoroacetic acid salt)]
ID50 B/Harbin/7/95 (Influenza B/Harbin/7/95; up to 72 hours, MTT): 0.0001, 0.0001 μg/ml
EC50 PRA B/HongK (B/Hong Kong/5/72 BVLV012): <0.0001 ng/mL
ID50 A/Sydney/5/97 (Influenza A/Sydney/5/97; molar): 0.087 M
ID50 A/Sydney/5/97 (Influenza A/Sydney/5/97; up to 72 hours, MTT): 0.0001, 0.0001 μg/ml
EC50 PRA A/Vic ([4]; plaque reduction, A/Victoria/3/75 (H3N2)): 0.0023 ng/mL
EC50 PRA B/Vic (B/Victoria/1/67): 0.01 ng/mL
Mean (cmpd) ([5]; 48 hrs): 1117 ng/g
Mean (cmpd) ([5]; 168 hrs): 376 ng/g
(cmpd) ([5]; 48 hrs): 591 ng/g and 1845 ng/g and 914 ng/g
(cmpd) ([5]; 168 hrs): 471 ng/g and 546 ng/g and 111 ng/g

CC(=O)N[C@H]1[C@H]([C@H](OC(=O)NCCCCCCCCCCCCCCNC(=O)O[C@@H]([C@@H]2OC(C(=O)O)=C[C@H](NC(=N)N)[C@H]2NC(C)=O)[C@H](O)CO)[C@H](O)CO)OC(C(=O)O)=C[C@@H]1NC(=N)N.O=C(O)C(F)(F)F.O=C(O)C(F)(F)F [Example 5]
EC50 PRA A/Pan [1]: 0.032 ng/mL
ID50 B/Harbin/7/95 (Influenza B/Harbin/7/95; molar): 0.26 M
ID50 B/Harbin/7/95 (Influenza B/Harbin/7/95; up to 72 hours, MTT): 0.0003 µg/mL
EC50 PRA B/HongK (B/Hong Kong/5/72 BVLV012): 0.37 ng/mL
ID50 A/Sydney/5/97 (Influenza A/Sydney/5/97; up to 72 hours, MTT): 0.0001 µg/mL
EC50 PRA A/Bay [2]: <0.0001 ng/mL
EC50 PRA A/WSN (A/WSN/33 BVLV09 (H1N1)): <0.0001 ng/mL
EC50 PRA A/Syd [3]: 0.032 ng/mL
EC50 PRA B/Vic (B/Victoria/1/67): 0.1 ng/mL
Mean (cmpd) ([5]; 48 hrs): 4803 ng/g
Mean (cmpd) ([5]; 168 hrs): 1798 ng/g
(cmpd) ([5]; 48 hrs): 3044 ng/g and 6268 ng/g and 5097 ng/g
(cmpd) ([5]; 168 hrs): 2750 ng/g and 1255 ng/g and 1388 ng/g
EC50 PRA A/New [6]: <0.0001 ng/mL
EC50 PRA B/Yam [7]: <0.0001 ng/mL
